Values of other authors in patent US8329231B2, “Method of preventing photo-aging with ashwagandha and Indian gooseberry” (Nutragenesis, LLC, priority 2008, dated 2012).

Conditions: values from the literature

O=C1O[C@H]([C@@H](O)CO)C(O)=C1O [Vitamin C]
HORAC (published, literature): 0 units
